Columns and labels:
THP-1 cells = experiment: Confocal fluorescence microscopy and Red-MitoTracker co-localization; assay type: cell-based, human; conditions: 10 μM, 24 h
Method: Thus, compounds 11a and 14 were subsequently examined in the context of living cells to determine whether they retained their fluorescence profile after entry into target cells. First, both compounds were incubated for 24 h with THP-1 cells at a concentration of 10 μM. After washing with PBS buffer, cells were analyzed under confocal microscopy using an appropriate laser stimulation (λex: 405 nm, λem: […]) to excite the molecules.
(§1) Co-localization experiments were performed to examine whether compound 11a may reach the cellular compartment where hDHODH is located. For this, a specific mitochondrial stain marker in the two cell lines in which the biological activities of 11a were observed, namely THP-1 and HCT-8 cells, was used. The compound was therefore incubated with THP-1 cells (Figure ) or HTC-8 cells (Figure ) at 37 °C for 24 h. Then, cells were stained with Red-MitoTracker (a specific fluorescent probe for mitochondrial targeting) for 30 min at 37 °C.
(§2) For fluorescence analysis, 10 μM of target compounds were incubated with THP-1 for 24 h. After washing the cells with a PBS buffer solution, they were analyzed under confocal microscopy imaging technique using the appropriate laser to excite the molecule. For the colocalization experiments, HCT-8 cells (55,000 cells/well) were plated on μ-Slide 8 well high glass bottom (IBIDI, Gräfelfing, Germany) and treated for 24 h with 10 μM of 11a at 37 °C. Then, cells were stained with MitoTracker Red CMXRos (ThermoFischer, Carlsbad, CA, USA) (1:4000) for 30′ at 37 °C and after washing with PBS buffer solution, cells were visualized with a Leica TCS SP5 multiphoton-inverted confocal microscope equipped with LAS AF matrix software. Live cells were imaged using an HCX PL APO 63×/1.4 NA oil immersion objective. Images were collected with excitation of ligand 11a at λex = 405 nm and emission at λem = 500 nm, Red-MitoTracker at λex = 581 nm and emission at λem = 605 nm.

hDHODH = hDHODH (Homo sapiens, UniProt Q02127); experiment: Fluorescence emission of the compound in the presence of recombinant hDHODH; assay type: binding; conditions: compound 1 μM, hDHODH 31.5 to 504 nM, TRIS pH 8
Method: In particular, we observed an increase in fluorescence intensity in correlation with the growing amount of protein, as shown in Figure .
UV–Vis absorption spectra were recorded on a Cary60 spectrometer. Photoemission spectra, luminescence lifetimes, and quantum yields were acquired with a HORIBA Jobin Yvon IBH Fluorolog-TCSPC spectrofluorometer equipped with a Quanta-φ integrating sphere. […] Emission-decay data were collected in 2048 channels to 10000 counts in the peak channel. IRF was measures using colloidal silica suspension in H2O to scatter light. Data were analyzed with the software DAS6 (TCSPC decay-analysis software) using a nonlinear least-squares method to fit of the decay to a sum of exponentials. The value of χ^2, residuals and the autocorrelation function (Durbin-Watson parameter) were used to determine the quality of the fit. […] After 5 min incubation UV–Vis absorption spectra were recorded on a Cary60 spectrophotometer and photoemission spectra were acquired with a HORIBA Jobin Yvon IBH Fluorolog-TCSPC spectrofluorometer with excitation λ of 366 nm and maximum of emission at 500 nm; a.u. data were analyzed with GraphPad Prism using One Site – Specific Binding equation.

HCT-8 cells = experiment: Confocal Red-MitoTracker co-localization; assay type: cell-based, human; conditions: 10 μM, 24 h
Method: as §1
as §2, with “Images were collected with excitation of ligand 11a at λex = 405 nm and emission at λem = 500 nm, Red-MitoTracker at λex = 581 nm and emission at λem = 605 nm.” left out

hDHODH, sequence (Q02127 whole entry): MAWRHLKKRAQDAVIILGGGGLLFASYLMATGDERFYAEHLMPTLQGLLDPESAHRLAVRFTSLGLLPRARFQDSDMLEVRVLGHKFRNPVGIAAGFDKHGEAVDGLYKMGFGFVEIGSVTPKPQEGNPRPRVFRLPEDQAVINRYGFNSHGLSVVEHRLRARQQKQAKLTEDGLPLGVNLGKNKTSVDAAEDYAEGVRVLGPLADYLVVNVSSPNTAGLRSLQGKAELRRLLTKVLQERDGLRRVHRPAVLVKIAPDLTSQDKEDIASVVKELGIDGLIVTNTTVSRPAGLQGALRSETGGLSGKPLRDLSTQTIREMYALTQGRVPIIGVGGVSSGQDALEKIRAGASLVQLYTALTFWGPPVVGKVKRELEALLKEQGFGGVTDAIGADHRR

In the case of `Oc1nn2ccccc2c1/C=C/c1c(F)c(F)c(-c2ccccc2)c(F)c1F` [Compound 11a, (E)-3-(2-(2,3,5,6-Tetrafluoro-[1,1’-biphenyl]-4-yl)vinyl)pyrazolo[1,5-a]pyridin-2-ol], the intracellular localization (THP-1 cells; THP-1) is reported as “localize in the cytosol”, the “fluorescence in living cells” value (THP-1 cells; THP-1, λex 405 nm) is reported as “recovered a strong fluorescence” and the “co-localization with Red-MitoTracker” value (THP-1 cells; THP-1 cells) is reported as “localize into mitochondria”. For the same compound, the “fluorescence in the presence of the recombinant protein” value (hDHODH) was “restoration of fluorescence” and the “co-localization with Red-MitoTracker” value (HCT-8 cells) was “localize into mitochondria”.

From publication PMC12257544, “Fluorescent Isostere (Fluostere) of the Carboxylate: Design of hDHODH Fluorescent Inhibitors as Proof of Concept” (Journal of Medicinal Chemistry, 2025)
